Measurements reported in PMC4712357 (Molecular informatics, 2015).

Test: Vesicle rupture assay
Type: biochemical
Details: POPC LUVs, relative to Triton X-100 (=100%)

Sequence: EWGQGLTSFWHL [compound 2]
- rupturing of POPC vesicles: 50–75%
